Measurements taken from publication PMC12713470, “Design and Synthesis of Novel Chalcone Derivatives Targeting Bladder and Liver Cancer: Cytotoxicity Evaluation and Preliminary Mechanistic Studies” (ACS Omega, 2025).

What was measured:
[1] = test system: HeLa: human cervical adenocarcinoma cells; test: MTT cytotoxicity assay on HeLa cells; assay type: cell-based
Description: (§1) Cytotoxicity was determined using the MTT colorimetric assay, and half-maximal inhibitory concentrations (IC50, μM) were obtained for all cell lines (Table ). The selectivity index (SI) was calculated as the ratio of IC50 MRC-5/IC50 cancer cell line. Doxorubicin was employed as a positive control due to its broad-spectrum clinical use, either alone or in combination, against hepatocellular, ovarian, cervical, and bladder cancers. −
(§2) In vitro biological assays were performed by using five human cell lines for cytotoxicity evaluation. HepG2 cells (ATCC HB-8065), derived from a human hepatocellular carcinoma of the liver (person), were cultured in Dulbecco’s modified Eagle medium (DMEM) supplemented with 5% fetal bovine serum (FBS), penicillin/streptomycin (100 IU/mL), and amphotericin B (5 μg/mL), in a humidified incubator with 5% CO2 at 37 °C. These cells were plated at a concentration of 2.0 × 10^4 cells/well in 96-well microplates. MRC-5 cells (ATCC CCL-171), derived from human lung fibroblasts of a […] fetus, were cultured under the same conditions and plated at 1.0 × 10^4 cells/well. T24 cells (ATCC HTB-4), established from a transitional cell carcinoma of the bladder (person), were also cultured under identical conditions and plated at a density of 1.0 × 10^4 cells/well. TOV-21G cells (ATCC CRL-11730), derived from a primary malignant ovarian adenocarcinoma (person), were maintained in DMEM with the same supplementation and environmental conditions and plated at 5.0 × 10^4 cells/well. […]
(§3) HeLa, HepG2, MRC-5, T24, and TOV-21G cells were suspended in a culture medium supplemented with 5% fetal bovine serum (FBS) and seeded into 96-well microplates. The plates were incubated under a humidified atmosphere containing 5% CO2 at 37 °C for 24 h, allowing for adherence and monolayer formation. , Eight serial dilutions of the test samples, previously solubilized in dimethyl sulfoxide (DMSO), were prepared in DMEM supplemented with 1% FBS, covering a concentration range from […], and the results were converted to […]. The volume of DMSO in each well was limited to a final concentration not exceeding 2%. Following monolayer formation, the culture medium was aspirated and replaced with 100 μL of the diluted test samples and 100 μL of DMEM containing 1% FBS. The plates were then incubated under the same atmospheric and temperature conditions.
(§4) Two hours prior to end point reading, 20 μL of MTT [3-(4,5-dimethylthiazol-2-yl)-2,5-diphenyltetrazolium bromide] solution (1.0 mg/mL in sterile phosphate-buffered saline, Sigma-Aldrich) was added to each well. The incubation period following sample addition varied according to the cell line: 24 h for MRC-5, 48 h for T24, and 72 h for HeLa, HepG2, and TOV-21G. After the appropriate incubation, absorbance was measured by using a VICTOR X3 microplate reader (PerkinElmer), and data were processed with WorkOut 2.5 software at a wavelength of 490 nm. Formazan formation, resulting from the MTT reduction by metabolically active cells, was used as an indirect measure of cell viability. The percentage of cytotoxicity was calculated using the equation % cytotoxicity = [(A – B)/A] × 100, where A is the optical density (OD4 9 0) of untreated control cells and B is the OD4 9 0 of treated cells.
(§5) Cytotoxicity was expressed as the 50% cytotoxic concentration (CC5 0), representing the concentration of sample required to reduce cell viability by 50% relative to that of the untreated control.

[2] = test system: T24: human urinary bladder carcinoma cells; test: MTT cytotoxicity assay on T24 cells; assay type: cell-based
Description: as §1, §2, §3, §4, §5

[3] = test system: TOV-21G: human ovarian adenocarcinoma cells; test: MTT cytotoxicity assay on TOV-21G cells; assay type: cell-based
Description: as §1, §2, §3, §4, §5

HepG2 cells [4] = test: Cell migration (wound), HepG2; assay type: cell-based, human; settings: 4.62 and 9.25 μM, 48 h
Description: (§6) The cells were cultured in DMEM (Sigma-Aldrich, St. Louis, USA) and supplemented with 10% fetal bovine serum (Cultilab Ltda., Campinas, Brazil) and antibiotics (amphotericin). They were incubated at 37 °C in a humidified atmosphere with 5% CO2. Control cell groups, which were not exposed to the compound, were included in the experiments and were conducted in triplicate. The chalcone was dissolved in dimethyl sulfoxide (DMSO) for the assays.
(§7) Cells were seeded in 24-well plates at a density of 1.0 × 10^5 cells per well and incubated for 24 h to allow attachment. After this incubation, a sterile 200 μL pipet tip was used to scrape the cell monolayer, creating a wound. The initial wound area was photographed using an inverted microscope equipped with a camera. Following this, the cells were washed with Hanks’ solution and treated with the glycosylated chalcone at concentrations of 2.15, 4.62, 9.25, and 18.50 μM for 48 h. At the end of the treatment period, the cells were photographed again, and migration into the wound area was assessed. The percentage of cell migration was quantified using ImageJ and GraphPad Prism software.

T24 cells [5] = test: Cell migration (wound), T24; assay type: cell-based, human; settings: highest concentration tested, 48 h
Description: as §6, §7

T24 cells [6] = test: Morphology assay, T24; assay type: cell-based, human; settings: 2.15-18.50 μM, 48 h
Description: For the morphology assay, 2.0 × 10^5 cells were cultured in 12-well plates for 24 h to allow adherence. After this period, the cells were treated with the chalcone at concentrations of 2.15, 4.62, 9.25, and 18.50 μM for 48 h. After treatment, the cells were examined and photographed under an inverted microscope at 200× magnification.

HepG2 cells [7] = test: Cell cycle progression (propidium iodide flow cytometry), HepG2; assay type: cell-based, human
Description: (§8) Cells were seeded in 12-well plates at a density of 1.0 × 10^5 cells per well and incubated for 24 h to allow adhesion. Following this initial incubation, the cells were treated with the chalcone at concentrations of 0.92, 2.15, 4.62, and 9.25 μM for an additional 48 h. After the treatment, the cells were washed, trypsinized, and collected along with the culture supernatant into Falcon tubes. The samples were then centrifuged at 1000 rpm for 10 min. After centrifugation, the supernatant was discarded, and the cell pellets were resuspended in 200 μL of propidium iodide staining solution before being transferred to cytometry tubes. These tubes were incubated on ice, in the dark, for 30 min. Flow cytometric analysis was performed on 20,000 events using a BD FACScalibur flow cytometer (BD Biosciences, Franklin Lakes, NJ, USA), and the data were analyzed using FlowJo software.

T24 cells [8] = test: Cell cycle progression (propidium iodide flow cytometry), T24; assay type: cell-based, human; settings: after treatment, 48 h
Description: as §8

[9] = all concentrations tested (0.92–4.62 μM)

CCCc1cc(/C=C/C(=O)c2ccc(C)cc2)c(OC)c(OC)c1 [compound 3, (E)-3-(2,3-Dimethoxy-5-propylphenyl)-1-(p-tolyl)-prop-2-en-1-one]
IC50 ([1]; Homo sapiens, HeLa, MTT, 72 h incubation, n = 3, NA: noncytotoxic at the concentrations tested): 5.9 ± 1.6 µM
SI (HeLa) ([1]; IC50 MRC-5/IC50 HeLa): 9.3
IC50 ([2]; Homo sapiens, T-24, MTT, 48 h incubation, n = 3, NA: noncytotoxic at the concentrations tested): 5 ± 1.6 µM
SI (T24) ([2]; IC50 MRC-5/IC50 T24): 11.1
potency against T24 relative to hit 1 ([2]; ratio of IC50 values, 1 vs 3): more than 32 times
IC50 ([3]; Homo sapiens, TOV21G, MTT, 72 h incubation, n = 3, NA: noncytotoxic at the concentrations tested): 3 ± 2.6 µM
SI (TOV-21G) ([3]; IC50 MRC-5/IC50 TOV-21G): 18.2
cell migration, HepG2 (HepG2 cells [4]): reduction of cell migration
cell migration, T24 (T24 cells [5]): significant decrease was observed
morphology, T24 (T24 cells [6]): reduction in cell density was observed
fraction of cells in sub-G1, HepG2 (HepG2 cells [7]; 0.92–4.62 μM): remained stable
G2/M phase, HepG2 (HepG2 cells [7]; [9]): corresponding reduction
population of cells in the G0/G1 phase, HepG2 (HepG2 cells [7]; [9]): significant increase
cell cycle distribution, T24 (T24 cells [8]): no difference was observed after treatment
